{"source": "paper PMC11992618", "about": "“Development of cyclopeptide inhibitors specifically disrupting FXR–coactivator interaction in the intestine as a novel therapeutic strategy for MASH” (Life Metabolism, 2025)", "key": {"[1]": {"biological_target": "T1, human FXR alpha (hFXRα)-LBD / SRC2-3 peptide (Homo sapiens, UniProt Q96RI1)", "T1 construct": "100 nmol/L 6*His-hFXRα-LBD and 100 nmol/L biotinylated co-factor peptide", "T1 sequence (Q96RI1 262-486 limits assumed)": "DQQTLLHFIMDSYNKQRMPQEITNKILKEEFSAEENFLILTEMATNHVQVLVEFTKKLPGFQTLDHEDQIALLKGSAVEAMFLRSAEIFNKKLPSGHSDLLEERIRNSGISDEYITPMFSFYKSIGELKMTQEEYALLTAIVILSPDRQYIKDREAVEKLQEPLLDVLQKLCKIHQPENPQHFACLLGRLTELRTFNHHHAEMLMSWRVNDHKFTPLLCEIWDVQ", "assay": "AlphaScreen assay, recruitment of coactivator peptide SRC2-3 to His-hFXRα-LBD", "format": "biochemical", "method": "An AlphaScreen technology-based assay was performed according to the manufacturer’s instructions with a minor revision. Briefly, the experiment was conducted with compounds at the indicated concentrations, 100 nmol/L 6*His-hFXRα-LBD and 100 nmol/L biotinylated co-factor peptide in the buffer containing 50 mmol/L MOPS, 50 μmol/L CHAPS, 50 mmol/L NaF, and 0.1 mg/mL BSA, pH 7.4. The mixture was incubated with 50 μg/mL nickel acceptor beads and 50 μg/mL streptavidin donor beads in a 384-well plate under green light in the dark at room temperature, before conducting fluorescence measurement with excitation at 680 nm and emission at 550 nm on an Envision microplate analyzer (PE 2102-8340, PerkinElmer Life Sciences)."}, "[2]": {"system": "Pxr, Vdr and Nr1i3 target gene expression in organoids", "assay": "PXR, VDR and CAR downstream gene expression in organoids", "format": "cell-based, mouse", "settings": "24 h", "from_the_text": "Intestinal crypts were isolated from 6- to 8-week-old C57BL/6 mice and Fxr^△IE mice as previously described with minor revision. Briefly, the abdomen of the mouse was dissected, and the small intestine was isolated with fats removed. The isolated intestine was flushed with cold PBS to remove the luminal contents. Then, the intestine was opened longitudinally and washed three times with PBS gently. The tissue was cut into small fragments (2 mm^2) and further washed three times with cold PBS gently, followed by incubation with 5 mmol/L EDTA-PBS at 4°C. After 40 min, the fragments were vortexed vigorously, and then the suspension was filtered through a […] and centrifuged at 50 g for 10 min. The crypts were counted and plated with Matrigel (1:1, 25 μL) and 500 μL IntestiCult Organoid Growth Medium with Supplements 1 and 2. The isolated crypts were cultured for 3–5 days and treated with indicated chemicals as described.\nThe intestine and liver were frozen in liquid nitrogen and stored at −80°C. RNA was extracted, and complementary DNA was synthesized from 1 μg total RNA. RT-qPCR was performed on a Bio-Rad CFX384 Touch detection system (Bio-Rad). […] RNA levels were analyzed by 2-^ΔΔCt, normalized to 18S ribosomal RNA and expressed as fold change relative to the control group.\nSupplementary Figure S7 Selectivity of DC646. […] Data are presented as the mean ± SEM and analyzed by unpaired t-test."}, "PPARα": {"biological_target": "T2, PPARα (Homo sapiens, UniProt Q07869)", "T2 sequence (Q07869 1-468)": "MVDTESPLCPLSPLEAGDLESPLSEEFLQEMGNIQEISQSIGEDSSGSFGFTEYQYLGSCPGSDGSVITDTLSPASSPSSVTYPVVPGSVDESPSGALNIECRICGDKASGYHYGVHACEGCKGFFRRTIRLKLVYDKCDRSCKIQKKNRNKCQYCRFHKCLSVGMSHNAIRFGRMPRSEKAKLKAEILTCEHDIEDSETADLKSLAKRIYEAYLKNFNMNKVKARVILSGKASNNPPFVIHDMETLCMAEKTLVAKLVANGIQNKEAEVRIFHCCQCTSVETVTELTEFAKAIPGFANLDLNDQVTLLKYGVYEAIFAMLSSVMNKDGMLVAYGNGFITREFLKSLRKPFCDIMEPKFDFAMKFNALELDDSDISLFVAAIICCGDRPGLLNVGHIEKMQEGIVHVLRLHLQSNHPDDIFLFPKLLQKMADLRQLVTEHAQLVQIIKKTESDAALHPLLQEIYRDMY", "assay": "PPARα cell-based reporter assay", "settings": "10 μmol/L; inhibition of agonist-induced receptor activation", "from_the_text": "Inhibition% means inhibition percentage of agonist-induced receptor activation."}, "MCD diet-induced MASH": {"system": "MCD diet-induced MASH", "assay": "MCD diet-induced MASH mice, long-term model", "format": "in vivo, mouse", "settings": "oral, 4 weeks", "method": "For the long-term MASH model, 8- to 10-week-old male C57BL/6 J mice were fed with an MCS diet or MCD diet for 2 weeks, before the MCD models were administered with vehicle or GUDCA (50 mg/kg), OCA (30 mg/kg), and DC646 (10 mg/kg) for 4 weeks. The serum, liver, and intestine were collected 2 h after the final dosing. Male Fxr^△IE mice (8–10 weeks old) were fed with a GAN diet for 20 weeks and administered with vehicle or DC646 (10 mg/kg) from the 12th week for 8 weeks. The serum, liver, and intestine were collected 2 h after the final dosing.\nThe intestine and liver were frozen in liquid nitrogen and stored at −80°C. RNA was extracted, and complementary DNA was synthesized from 1 μg total RNA. RT-qPCR was performed on a Bio-Rad CFX384 Touch detection system (Bio-Rad). The primer sequences for RT-qPCR are shown in Supplementary Table S5. RNA levels were analyzed by 2-^ΔΔCt, normalized to 18S ribosomal RNA and expressed as fold change relative to the control group.\nHepatic TG and TC, and plasma ALT and AST levels were measured using commercial kits from Nanjing Jiancheng Bioengineering Institute according to the manufacturer’s instructions. To measure hepatic TG contents, liver tissues (~10 mg) were homogenized in 100 μL 1% TritonX-100 and centrifuged at 3000 rpm for 10 min. Supernatants were collected, and 2 μL samples were incubated with 200 μL reaction buffer at 37°C for 10 min. Hepatic TG or TC levels were read at 510 or 500 nm using a microplate reader (Versamax, Molecular Devices) and normalized using the protein concentration. To measure plasma ALT and AST levels, reaction buffer 1 and reaction buffer 2 were mixed at a ratio of 1:1, before adding 2 μL plasma sample and 200 μL mixed reaction buffer in a 96-well plate. The data were acquired using the kinetic mode with an interval of 30 s and 31 total reads at 340 nm using a microplate reader (Versamax, Molecular Devices).\nTissue specimens were fixed in 10% formalin for 12–24 h before being dehydrated and paraffin-embedded. The sections were stained with H&E. The NAS was calculated as a summary score including individual components of steatosis (0–3), lobular inflammation (0–3), and hepatocyte ballooning (0–2) for each liver section by a blinded liver pathologist, and the results were reviewed by a blinded hepatologist according to a previous protocol. To visualize liver fibrosis, paraffin-embedded tissue samples were stained with Sirius Red to characterize the collagen deposition. To visualize lipid accumulation and inflammation in the liver, frozen liver sections were stained with Oil Red O and F4/80, and images were acquired using a Leica DM6B laser microdissection system. At least three discontinuous liver sections were evaluated for each mouse."}, "[3]": {"settings": "DC646 10 mg/kg, GUDCA 50 mg/kg, OCA 30 mg/kg"}}, "data": [{"smiles": "CC(C)C[C@@H]1NC(=O)[C@@H]2CN(CCO2)c2cccc3c2c(cn3[Si](C(C)C)(C(C)C)C(C)C)C[C@H](NS(=O)(=O)C(F)(F)F)C(=O)OCCCCNC(=O)[C@H](CC(C)C)NC(=O)[C@@H]2CN(CCO2)c2cccc3c2c(cn3[Si](C(C)C)(C(C)C)C(C)C)C[C@H](NS(=O)(=O)C(F)(F)F)C(=O)OCCCCNC1=O", "note": "[DC646, N,N'-((1^2R,1^4S,16^2R,16^4S,4R,13R,19R,28R)-13,28-diisobutyl-5,12,15,20,27,30-hexaoxo-2^1,17^1-bis(triisopropylsilyl)-2^1H,17^1H-6,21-dioxa-11,14,26,29-tetraaza-1(4,2),16(2,4)-dimorpholina-2,17(4,3)-diindolacyclotriacontaphane-4,19-diyl)bis(1,1,1-trifluoromethanesulfonamide)]", "values": [{"measurement": "Agonistic activity (SRC2-3 recruitment, compound alone)", "setting": "[1]; DC646 alone, Fig. 2e", "result": "no agonistic activity"}, {"measurement": "Disruption of hFXRα-LBD-SRC2-3 interaction induced by Ivermectin", "setting": "[1]; DC646 at 11 μmol/L, Ivermectin 5 μmol/L", "result": "competitively disrupted"}, {"measurement": "IC50", "setting": "[1]; IC50, DC646 combined with CDCA, adding order: DC646 combined with CDCA, Fig. 4b", "result": 12.2, "unit": "µM"}, {"measurement": "IC50", "setting": "[1]; IC50 in recruiting the SRC2-3 peptide in the presence of CDCA, in the presence of CDCA (50 μmol/L), Fig. 2f", "result": 8.86, "unit": "µM"}, {"measurement": "Effect on CDCA agonism when adding DC646 before CDCA", "setting": "[1]; adding order: CDCA after DC646", "result": "completely blunted the agonism of CDCA"}, {"measurement": "Antagonism when adding DC646 after CDCA", "setting": "[1]; adding order: DC646 after CDCA", "result": "no antagonism"}, {"measurement": "Pxr, Vdr and Nr1i3 target gene expression", "setting": "[2]", "result": "no significant impact"}, {"measurement": "inhibition at 10 µM", "setting": "PPARα", "result": -1.3, "unit": "%"}, {"measurement": "F4/80 staining, macrophage infiltration in the liver", "setting": "MCD diet-induced MASH; DC646 10 mg/kg", "result": "good efficacy in reducing macrophage infiltration"}, {"measurement": "Hepatic FXR signaling in MASH mice", "setting": "MCD diet-induced MASH; DC646 10 mg/kg", "result": "without affecting"}, {"measurement": "Hepatic triglyceride (TG) levels", "setting": "MCD diet-induced MASH; DC646 10 mg/kg", "result": "markedly reduced"}, {"measurement": "Intestinal FXR signaling in MASH mice", "setting": "MCD diet-induced MASH; DC646 10 mg/kg", "result": "selectively inhibited"}, {"measurement": "NAFLD activity scoring (NAS)", "setting": "MCD diet-induced MASH; DC646 10 mg/kg", "result": "alleviating MASH pathologies"}, {"measurement": "Hepatic mRNA levels of inflammation-related genes", "setting": "MCD diet-induced MASH; DC646 10 mg/kg, GUDCA 50 mg/kg", "result": "notable reduction"}, {"measurement": "Hepatic mRNA levels of lipid metabolism-related genes / hepatic lipid accumulation", "setting": "MCD diet-induced MASH; [3]", "result": "reduce the mRNA levels"}, {"measurement": "Serum alanine aminotransferase (ALT) level", "setting": "MCD diet-induced MASH; [3]", "result": "significantly lowered"}, {"measurement": "H&E and Oil Red O staining, lipid droplets", "setting": "MCD diet-induced MASH; versus vehicle-, GUDCA- and OCA-treated groups", "result": "fewer lipid droplets"}]}]}
